{"source": "paper PMC4666614", "about": "“Identification of New Regions in HIV-1 gp120 Variable 2 and 3 Loops that Bind to α4β7 Integrin Receptor” (PLoS ONE, 2015)", "key": {"[1]": {"test_system": "α4β7 integrin binding to MAdCAM-1", "experiment": "Competitive inhibition of binding of α4β7 on RPMI8866 cells to MAdCAM-1 by peptides, viruses, IMCs and controls", "assay_type": "cell-based, human", "conditions": "for % Inhibition ± SD of α4β7 integrin binding to MAdCAM-1: average of 3–7 experiments in triplicate; for Inhibition of α4β7 integrin binding to MAdCAM-1 by peptide (competition): peptide 10 μg/ml, cells pre-incubated 45 min 37°C, 2–4 experiments in triplicate", "method": "96-well plates were coated with MAdCAM-1 as described above. RPMI8866 cells (2 X 10^6/ ml) were incubated with cyclic V2 or V3 MN, TH023, or acute subtype C (C-6980v0c22) peptides or with scrambled flanking region (SFL) or the mid region (SMR) TH023 V2 or with a completely scrambled (SCR) TH023 peptide (10 μg/ml) for 45 minutes at 37°C before being added in triplicate to the MAdCAM-1 coated plates for 1 hour at 37°C. In concurrent experiments, RMI8866 cells were incubated with purified primary HIV-1 (0.75 ng to 6 ng/well p24) subtype B (SF162, US-1, JRFL), subtype CRF01_AE viruses (92TH023), IMCs (0.75 ng to 1000 ng/well p24 in each case) containing acute or chronic envelopes (Acute CRF01_AE (703357) [GenBank:JN944658], C (C-6980v0c22) [GenBank:HM215344], A(851891); Chronic CRF01_AE (CM235.2) [AF259954.1], C (ET02220LucR) [U46016]) or with pSG3Δenv. pSG3Δenv contained a four-nucleotide insertion mutation (CTAG) in Env, leading to a translation stop codon after amino acid residue 142. The pSG3Δenv clone is routinely used for generating Env pseudotyped infectious virions.\nViruses were tested in triplicate in two independent experiments. In additional experiments, mannose, HIV-1 p24, and ovalbumin (0.2–10 μg/ml) were used in the competition assay as nonspecific protein controls (data in Table 2; 3–7 experiments performed in triplicate), whereas, an anti-RSV mAb, Synagis® was used as a nonspecific antibody control. Synagis® was incubated for 45 minutes with either MAdCAM-1 or with RPMI8866 cells and then placed in the assay system. The remainder of the assay was similar to that described above. Significance was determined by paired Student’s t test."}, "α4β7 on RPMI8866 cells [2]": {"test_system": "α4β7 on RPMI8866 cells", "experiment": "Binding of α4β7 on RPMI8866 cells to plate-bound biotinylated V2/V3 peptides and its inhibition by ACT-1 (AlamarBlue)", "assay_type": "cell-based, human", "conditions": "streptavidin plate, biotinylated peptide 5 μg/ml; cells pre-incubated with ACT-1 0.5 μg/ml 45 min 37°C; 8 hour time point; average of 3 to 12 experiments in duplicate or triplicate", "method": "Triplicate wells of a 96-well U-bottom polystyrene plate (Immunlon) were coated overnight at 4°C with 100 μl of 2 μg/ml of MAdCAM-1 or Streptavidin diluted in 0.05 M bicarbonate buffer, pH 9.6. The streptavidin-coated plates were then incubated with biotinylated cyclic or linear V2 peptides or cyclic V3 peptides (5 μg/ml in bicarbonate buffer, See Table 1 for sequence data) for 1 hour at 37°C. The solution from the plates was discarded and the plates were then blocked with blocking buffer (25 mM TRIS, 2.7 mM potassium chloride, 150 mM sodium chloride, 0.5% casein, 4 mM manganese chloride, pH 7.2) for 1 hour at 37°C. The solution was discarded and the plates were incubated with sample buffer (25 mM TRIS, 2.7 mM potassium chloride, 150 mM sodium chloride, 4 mM manganese chloride, pH 7.2 containing 1% fetal bovine sera) for 45 minutes at 37°C. Plates were manually washed 4 times with blocking buffer followed by the addition of 2 x 10^5 RPMI8866 cells/well that had been pre-incubated for 45 minutes at 37°C with sample buffer, with sample buffer containing 0.5 μg/ml of mAb ACT-1 or as a control, normal mouse serum (1:100). Plates were then incubated at 37°C (5% CO2) for 1 hour, washed 5 times with wash buffer followed by the addition of 100 μl of RPMI-1640 containing 1% FBS, pen/strep/glutamine. The adhered cells were detected by the addition of 10 μl of AlamarBlue® dye. Plates were incubated at 37°C (5% CO2) for 8 hours. Fluorescence was measured at 2 hour intervals using a M2 plate reader. For each condition, a minimum of 2 to 12 independent experiments run in duplicate or triplicate was performed. The optimum amount of coating proteins/peptides and the amount of ACT-1 required to inhibit α4β7 on RPMI8866 cells was determined in separate experiments (data not shown)."}, "α4β7 on RPMI8866 cells [3]": {"test_system": "α4β7 on RPMI8866 cells", "experiment": "Flow cytometry binding of ACT-1, gp120 and cyclic V2 peptides to RPMI8866 cells", "design": "species or system human", "conditions": "gp120 2.5 μg (anti-gp145 + anti-mouse Texas Red); biotinylated peptides 1 μg and 5 μg (neutrAvidin-PE); 30 min on ice; n = 2", "method": "RPMI8866 cells (0.5 x10^6) were incubated for 30 minutes on ice with 10% normal goat sera in PBS to block the Fc receptors. Cells were suspended in cold FACS buffer (PBS-containing 0.5% BSA) and incubated at room temperature for 30 minutes with the mAb ACT-1 conjugated to APC (1 μg). Cells were washed twice with cold FACS buffer, fixed with 2% formaldehyde in PBS, and analyzed on a LSRII flow cytometer. The data was analyzed using FlowJo8.8.6 software (TreeStar Inc.).\nRPMI8866 cells (1 x10^6) were suspended in cold FACS buffer (PBS-containing 0.5% BSA) and incubated at room temperature for 30 minutes with LIVE ⁄ DEAD® Fixable Dead Cell Stain (Life Technologies) as per the manufacturer’s instruction. Cells were washed twice with cold FACS buffer before being incubated with 10% goat sera in PBS for 30 minutes on ice. All subsequent incubations were carried out for 30 minutes on ice. CHO- expressed HIV-1IIIB rgp120 (2.5 μg) and biotinylated cyclic V2-TH023 peptide (1 μg and 5 μg) were incubated with RPMI8866 cells. […] Cells were washed twice with cold FACS buffer, fixed with 2% formaldehyde in PBS, and analyzed on a LSRII flow cytometer. The data was analyzed using FlowJo8.8.6 software (TreeStar Inc.)."}}, "note": "Several values for one entry are separate records, joined by “and”; a condition that tells them apart may be missing. Equal values may be shown once. Bridge positions count the residues as written; N and C are the ends. Ends that are not written are not given here.", "data": [{"compound": "OC[C@H]1OC(O)[C@@H](O)[C@@H](O)[C@@H]1O", "note": "(stereo partly drawn) [Mannose, mannose, reference compound]", "values": [{"measurement": "% Inhibition ± SD of α4β7 integrin binding to MAdCAM-1", "setting": "[1]; 0.2 μg/ml", "value": "6.7 ± 7.6", "unit": "%"}, {"measurement": "% Inhibition ± SD of α4β7 integrin binding to MAdCAM-1", "setting": "[1]; 1.0 μg/ml", "value": "7.6 ± 8.8", "unit": "%"}, {"measurement": "% Inhibition ± SD of α4β7 integrin binding to MAdCAM-1", "setting": "[1]; 5 μg/ml", "value": "16.3 ± 14.9", "unit": "%"}, {"measurement": "% Inhibition of α4β7 integrin binding to MAdCAM-1", "setting": "[1]; 10 μg/ml, average of triplicate determinations from a single experiment", "value": 0, "unit": "%"}, {"measurement": "Inhibition of α4β7 integrin binding to MAdCAM-1 by nonspecific controls (in words)", "setting": "[1]; 0.2–10 μg/ml", "value": "no significant inhibition"}]}, {"compound": "CSFNITTELRDKRKKEHALFNNLDIVQLDGNSSLYRLINC (disulfide 1-40 (inferred)) [Cyclic V2 Acute C, cyclic V2 loop peptide based on acute C strain C06980v0c22]", "values": [{"measurement": "Percent inhibition by ACT-1 of binding of α4β7 on RPMI8866 cells to the plate-bound peptide", "setting": "α4β7 on RPMI8866 cells [2]", "value": 72.3, "unit": "%"}]}, {"compound": "CSFNITTSIGDKMQKEYALLYKLDIEPIDNDSTSYRLISC (disulfide 1-40 (inferred)) [Cyclic V2 MN, cyclic V2 loop peptide based on MN strain (subtype B)]", "values": [{"measurement": "Percent inhibition by ACT-1 of binding of α4β7 on RPMI8866 cells to the plate-bound peptide", "setting": "α4β7 on RPMI8866 cells [2]", "value": 66.3, "unit": "%"}]}, {"compound": "CSFNMTTELRDKKQKVHALFYKLDIVPIEDNTSSSEYRLINC (disulfide 1-42 (inferred)) [Cyclic V2 TH023, biotinylated cyclic V2 loop peptide of gp120, strain 92TH023 (CRF01_AE), HXB2 157–196]", "values": [{"measurement": "Percent inhibition by ACT-1 of binding of α4β7 on RPMI8866 cells to the plate-bound peptide", "setting": "α4β7 on RPMI8866 cells [2]", "value": 62.9, "unit": "%"}, {"measurement": "Binding to α4β7 on RPMI8866 cells (flow cytometry)", "setting": "α4β7 on RPMI8866 cells [3]", "value": "bound to α4β7"}, {"measurement": "Inhibition of α4β7 integrin binding to MAdCAM-1 by peptide (competition)", "setting": "[1]", "value": "80–90%"}]}, {"compound": "CTRPNNNTRKSIRIGPGQTFYATGDIIGDIRQAYC (disulfide 1-35 (inferred)) [Cyclic V3 Acute C, cyclic V3 loop peptide based on acute C strain C06980v0c22]", "values": [{"measurement": "Percent inhibition by ACT-1 of binding of α4β7 on RPMI8866 cells to the plate-bound peptide", "setting": "α4β7 on RPMI8866 cells [2]", "value": 70.0, "unit": "%"}]}, {"compound": "CTRPNYNKRKRIHIGPGRAFYTTKNIKGTIRQAHC (disulfide 1-35 (inferred)) [Cyclic V3 MN, cyclic V3 loop peptide based on MN strain (subtype B)]", "values": [{"measurement": "Percent inhibition by ACT-1 of binding of α4β7 on RPMI8866 cells to the plate-bound peptide", "setting": "α4β7 on RPMI8866 cells [2]", "value": 75.5, "unit": "%"}, {"measurement": "Inhibition of α4β7 integrin binding to MAdCAM-1 by peptide (competition)", "setting": "[1]", "value": 80, "unit": "%"}]}, {"compound": "CTRPSNNTRTSINIGPGQVFYRTGDIIGDIRKAYC (disulfide 1-35 (inferred)) [Cyclic V3 TH023, cyclic V3 loop peptide, strain 92TH023, HXB2 295–331]", "values": [{"measurement": "Percent inhibition by ACT-1 of binding of α4β7 on RPMI8866 cells to the plate-bound peptide", "setting": "α4β7 on RPMI8866 cells [2]", "value": 67.6, "unit": "%"}, {"measurement": "Inhibition of α4β7 integrin binding to MAdCAM-1 by peptide (competition)", "setting": "[1]", "value": "80–90% and 80%"}]}, {"compound": "Synagis: anti-RSV mAb used as a nonspecific antibody control [reference compound]", "values": [{"measurement": "Inhibition of α4β7 binding to MAdCAM-1 by nonspecific antibody control", "setting": "[1]; mAb incubated 45 min either with MAdCAM-1-coated plate or with RPMI8866 cells, 3 experiments", "value": "did not inhibit the α4β7 binding"}]}, {"compound": "XSFNMTTELRDKKQKVHALFYKLDIVPIEDNTSSSEYRLINX [Linear V2 TH023, linear V2 92TH023 peptide with S-methyl Cysteine at both ends]", "values": [{"measurement": "Percent inhibition by ACT-1 of binding of α4β7 on RPMI8866 cells to the plate-bound peptide", "setting": "α4β7 on RPMI8866 cells [2]", "value": 65.5, "unit": "%"}]}, {"compound": "gp120: HIV-1IIIB rgp120 (CHO expressed) [reference compound]", "values": [{"measurement": "Binding to α4β7 on RPMI8866 cells (flow cytometry)", "setting": "α4β7 on RPMI8866 cells [3]", "value": "bound to α4β7"}]}]}
